Experimental data published in patent US20020137929A1, “1 - (3-heterocyclylphenyl) isothiourea, -isourea, -guanidine and -amidine herbicidal agents” (Intellectual Property Department, BASF Aktiengesellschaft, priority 1998, published 2002).

Legend:
[1] = tested on: SAGPY (Arrowhead (Pygmaea)); test: Postemergence weed control under flooded paddy conditions; type: in vivo, Sagittaria pygmaea; settings: postemergence weeds
How it was run: (§1)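 Injury ratings (0–9 scale covering stand, vigor, malformation, size, chlorosis and overall appearance versus control) were made three to four weeks after treatment. Test material, about 0.0313 to 0.500 kg/ha a.i. in 50/50 v/v aqueous/acetone, was added to flood water 1.5 to 3 cm deep over 3 to 5 cm weeds and 1.5 to 2.5 leaf rice.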

ABUTH (Velvetleaf) [2] = test: Preemergence herbicidal evaluation; type: in vivo, Abutilon theophrasti; settings: rated 4-5 weeks after treatment
How it was run: (§2)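 Steps: mix seeds into potting soil; plant atop ~1 inch soil; spray compound in aqueous acetone (~0.0156-0.500 kg/ha equivalent); maintain in greenhouse with watering; rate visually 0-9 versus control at 4-5 weeks.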

ORYSAT (Rice, Tebonnet) = test: Preemergence herbicidal evaluation; type: in vivo, Oryza sativa, (L.) Tebonnet; settings: rated 4-5 weeks after treatment
How it was run: as §2

[3] = tested on: CHEAL (Lambsquarters, Common); test: Postemergence herbicidal evaluation; type: in vivo, Chenopodium album; settings: postemergence
How it was run: (§3)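 Compound is applied as a foliar spray to seedlings about two weeks old, formulated in equal parts acetone and water with 0.5% TWEEN 20 and delivered at 40 psi to give about 0.0156–0.500 kg per hectare. Injury is rated visually 0–9 after four to five weeks.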

CYPIR (Rice Flatsedge) = test: Preemergence weed control under flooded paddy conditions; type: in vivo, Cyperus iria; settings: rated 3-4 weeks after treatment
How it was run: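 First, seeds or propagules go into the top 0.5 cm of silt loam; next, water is held 1.5 to 3 cm over the soil; then compound (50/50 acetone/water) is pipetted into it at about 0.0313 to 0.500 kg/ha; finally plants are rated visually 0-9 after three to four weeks.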

ECHCG (Barnyardgrass) = test: Postemergence herbicidal evaluation; type: in vivo, Echinochloa crus-galli; settings: postemergence
How it was run: as §3

CYPSE (Flatsedge) [4] = test: Postemergence weed control under flooded paddy conditions; type: in vivo, Cyperus serotinus; settings: postemergence weeds
How it was run: as §1

MOOVA (Monochoria) = test: Preemergence weed control under flooded paddy conditions; type: in vivo, Monochoria vaginalis; settings: rated 3-4 weeks after treatment
How it was run: (§4)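 Flooded-pot preemergence screen with silt loam and seeds in the upper 0.5 cm. Dose about 0.0313 to 0.500 kg/ha, delivered into flood water; visual 0-9 score after 3 to 4 weeks.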

ZEAMX (Corn, Field) = test: Preemergence herbicidal evaluation; type: in vivo, Zea mays; settings: rated 4-5 weeks after treatment
How it was run: as §2

CYPSE (Flatsedge) [5] = test: Preemergence weed control under flooded paddy conditions; type: in vivo, Cyperus serotinus; settings: rated 3-4 weeks after treatment
How it was run: as §4

ABUTH (Velvetleaf) [6] = test: Postemergence herbicidal evaluation; type: in vivo, Abutilon theophrasti; settings: postemergence
How it was run: as §3

[7] = tested on: IPOHE (Morningglory, Ivyleaf); test: Preemergence herbicidal evaluation; type: in vivo, Ipomoea hederacea; settings: rated 4-5 weeks after treatment
How it was run: as §2

[8] = tested on: GLXMAW (Soybean, Williams); test: Postemergence herbicidal evaluation; type: in vivo, Glycine max, (L.) Merr. cv Williams; settings: postemergence
How it was run: as §3

[9] = tested on: GLXMAW (Soybean, Williams); test: Preemergence herbicidal evaluation; type: in vivo, Glycine max, (L.) Merr. cv Williams; settings: rated 4-5 weeks after treatment
How it was run: as §2

[10] = rate 0.0313 kg/ha, 3-4 weeks after treatment
[11] = rate 0.0625 kg/ha, 3-4 weeks after treatment
[12] = rate 0.1250 kg/ha, 3-4 weeks after treatment
[13] = rate 0.2500 kg/ha, 3-4 weeks after treatment
[14] = rate 0.5000 kg/ha, 3-4 weeks after treatment
[15] = Rate 0.0313 kg/ha, rated 3 to 4 weeks after treatment
[16] = Rate 0.0625 kg/ha, rated 3 to 4 weeks after treatment
[17] = Rate 0.1250 kg/ha, rated 3 to 4 weeks after treatment
[18] = Rate 0.2500 kg/ha, rated 3 to 4 weeks after treatment

SMILES: CC1SC(=Nc2cc(N3C(=O)C4=C(CCCC4)C3=O)c(F)cc2Cl)N(C)C1=O (stereo not shown) [Compound 4]
- Herbicidal rating SAGPY [1, 10]: 0.0
- Herbicidal rating SAGPY [1, 11]: 0.0
- Herbicidal rating SAGPY [1, 12]: 0.0
- Herbicidal rating SAGPY [1, 13]: 0.0
- Herbicidal rating SAGPY [1, 14]: 0.0
- ABUTH preemergence herbicidal rating (ABUTH (Velvetleaf) [2]; rate 0.1250 kg/ha): 0.0
- ABUTH preemergence herbicidal rating (ABUTH (Velvetleaf) [2]; rate 0.2500 kg/ha): 2.0
- ABUTH preemergence herbicidal rating (ABUTH (Velvetleaf) [2]; rate 0.5000 kg/ha): 8.0
- ORYSAT preemergence herbicidal rating (ORYSAT (Rice, Tebonnet); rate 0.1250 kg/ha): 0.0
- ORYSAT preemergence herbicidal rating (ORYSAT (Rice, Tebonnet); rate 0.2500 kg/ha): 2.0
- ORYSAT preemergence herbicidal rating (ORYSAT (Rice, Tebonnet); rate 0.5000 kg/ha): 4.0
- CHEAL herbicidal rating ([3]; rate 0.0313 kg/ha): 2.0
- CHEAL herbicidal rating ([3]; rate 0.0625 kg/ha): 6.0
- CHEAL herbicidal rating ([3]; rate 0.1250 kg/ha): 8.0
- CHEAL herbicidal rating ([3]; rate 0.2500 kg/ha): 4.0
- CHEAL herbicidal rating ([3]; rate 0.5000 kg/ha): 4.0
- Herbicidal rating CYPIR (CYPIR (Rice Flatsedge); 0.0313 kg/ha): 0.0
- Herbicidal rating CYPIR (CYPIR (Rice Flatsedge); 0.0625 kg/ha): 4.0
- Herbicidal rating CYPIR (CYPIR (Rice Flatsedge); 0.1250 kg/ha): 8.0
- Herbicidal rating CYPIR (CYPIR (Rice Flatsedge); 0.2500 kg/ha): 9.0
- Herbicidal rating CYPIR (CYPIR (Rice Flatsedge); 0.5000 kg/ha): 9.0
- ECHCG herbicidal rating (ECHCG (Barnyardgrass); rate 0.0313 kg/ha): 0.0
- ECHCG herbicidal rating (ECHCG (Barnyardgrass); rate 0.0625 kg/ha): 0.0
- ECHCG herbicidal rating (ECHCG (Barnyardgrass); rate 0.1250 kg/ha): 0.0
- ECHCG herbicidal rating (ECHCG (Barnyardgrass); rate 0.2500 kg/ha): 4.0
- ECHCG herbicidal rating (ECHCG (Barnyardgrass); rate 0.5000 kg/ha): 2.0
- Herbicidal rating CYPSE (CYPSE (Flatsedge) [4]; [10]): 0.0
- Herbicidal rating CYPSE (CYPSE (Flatsedge) [4]; [11]): 0.0
- Herbicidal rating CYPSE (CYPSE (Flatsedge) [4]; [12]): 0.0
- Herbicidal rating CYPSE (CYPSE (Flatsedge) [4]; [13]): 0.0
- Herbicidal rating CYPSE (CYPSE (Flatsedge) [4]; [14]): 0.0
- Herbicidal rating MOOVA (MOOVA (Monochoria); 0.0313 kg/ha): 2.0
- Herbicidal rating MOOVA (MOOVA (Monochoria); 0.0625 kg/ha): 7.0
- Herbicidal rating MOOVA (MOOVA (Monochoria); 0.1250 kg/ha): 8.0
- Herbicidal rating MOOVA (MOOVA (Monochoria); 0.2500 kg/ha): 9.0
- Herbicidal rating MOOVA (MOOVA (Monochoria); 0.5000 kg/ha): 9.0
- ZEAMX preemergence herbicidal rating (ZEAMX (Corn, Field); rate 0.1250 kg/ha): 2.0
- ZEAMX preemergence herbicidal rating (ZEAMX (Corn, Field); rate 0.2500 kg/ha): 2.0
- ZEAMX preemergence herbicidal rating (ZEAMX (Corn, Field); rate 0.5000 kg/ha): 4.0
- Herbicidal rating CYPSE (CYPSE (Flatsedge) [5]; 0.0313 kg/ha): 0.0
- Herbicidal rating CYPSE (CYPSE (Flatsedge) [5]; 0.0625 kg/ha): 0.0
- Herbicidal rating CYPSE (CYPSE (Flatsedge) [5]; 0.1250 kg/ha): 0.0
- Herbicidal rating CYPSE (CYPSE (Flatsedge) [5]; 0.2500 kg/ha): 0.0
- Herbicidal rating CYPSE (CYPSE (Flatsedge) [5]; 0.5000 kg/ha): 0.0
- ABUTH herbicidal rating (ABUTH (Velvetleaf) [6]; rate 0.0313 kg/ha): 2.0
- ABUTH herbicidal rating (ABUTH (Velvetleaf) [6]; rate 0.0625 kg/ha): 4.0
- ABUTH herbicidal rating (ABUTH (Velvetleaf) [6]; rate 0.1250 kg/ha): 9.0
- ABUTH herbicidal rating (ABUTH (Velvetleaf) [6]; rate 0.2500 kg/ha): 9.0
- ABUTH herbicidal rating (ABUTH (Velvetleaf) [6]; rate 0.5000 kg/ha): 9.0

SMILES: CCOC(=O)CN1C(=O)C(Cc2ccccc2OC(C)C(=O)O)S/C1=N/c1cc(-n2c(=O)cc(C(F)(F)F)n(C)c2=O)c(F)cc1Cl (stereo not shown) [Compound 114, 5-[o-(1-Carboxyethoxy)benzyl]-2-{{2-chloro-5-[3,6-dihydro-3-methyl-2,6-dioxo-4-(trifluoromethyl)-1(2H)-pyrimidinyl]-4-fluorophenyl}imino}-4-oxo-3-thiazolidineacetic acid, 3-ethyl ester]
- Preemergence herbicidal rating IPOHE ([7]; rate 0.0156 kg/ha): 0.0
- Preemergence herbicidal rating IPOHE ([7]; rate 0.0313 kg/ha): 0.0
- Preemergence herbicidal rating IPOHE ([7]; rate 0.0625 kg/ha): 0.0
- Preemergence herbicidal rating IPOHE ([7]; rate 0.1250 kg/ha): 9.0
- Preemergence herbicidal rating IPOHE ([7]; rate 0.2500 kg/ha): 7.0
- Herbicidal rating SAGPY [1, 15]: 0.0
- Herbicidal rating SAGPY [1, 16]: 0.0
- Herbicidal rating SAGPY [1, 17]: 0.0
- Herbicidal rating SAGPY [1, 18]: 0.0
- Preemergence herbicidal rating ABUTH (ABUTH (Velvetleaf) [2]; rate 0.0156 kg/ha): 0.0
- Preemergence herbicidal rating ABUTH (ABUTH (Velvetleaf) [2]; rate 0.0313 kg/ha): 1.0
- Preemergence herbicidal rating ABUTH (ABUTH (Velvetleaf) [2]; rate 0.0625 kg/ha): 6.0
- Preemergence herbicidal rating ABUTH (ABUTH (Velvetleaf) [2]; rate 0.1250 kg/ha): 9.0
- Preemergence herbicidal rating ABUTH (ABUTH (Velvetleaf) [2]; rate 0.2500 kg/ha): 9.0
- herbicidal rating GLXMAW ([8]; rate 0.0158 kg/ha): 6.0
- herbicidal rating GLXMAW ([8]; rate 0.0315 kg/ha): 5.5
- herbicidal rating GLXMAW ([8]; rate 0.0630 kg/ha): 6.5
- Preemergence herbicidal rating ORYSAT (ORYSAT (Rice, Tebonnet); rate 0.0156 kg/ha): 0.0
- Preemergence herbicidal rating ORYSAT (ORYSAT (Rice, Tebonnet); rate 0.0313 kg/ha): 0.0
- Preemergence herbicidal rating ORYSAT (ORYSAT (Rice, Tebonnet); rate 0.0625 kg/ha): 0.0
- Preemergence herbicidal rating ORYSAT (ORYSAT (Rice, Tebonnet); rate 0.1250 kg/ha): 2.0
- Preemergence herbicidal rating ORYSAT (ORYSAT (Rice, Tebonnet); rate 0.2500 kg/ha): 2.0
- herbicidal rating CHEAL ([3]; rate 0.0158 kg/ha): 7.0
- herbicidal rating CHEAL ([3]; rate 0.0315 kg/ha): 6.0
- herbicidal rating CHEAL ([3]; rate 0.0630 kg/ha): 9.0
- CYPIR herbicidal effect rating (CYPIR (Rice Flatsedge); 0.0313 kg/ha): 4.5
- CYPIR herbicidal effect rating (CYPIR (Rice Flatsedge); 0.0625 kg/ha): 6.5
- CYPIR herbicidal effect rating (CYPIR (Rice Flatsedge); 0.1250 kg/ha): 8.5
- CYPIR herbicidal effect rating (CYPIR (Rice Flatsedge); 0.2500 kg/ha): 9.0
- herbicidal rating ECHCG (ECHCG (Barnyardgrass); rate 0.0158 kg/ha): 0.0
- herbicidal rating ECHCG (ECHCG (Barnyardgrass); rate 0.0315 kg/ha): 1.0
- herbicidal rating ECHCG (ECHCG (Barnyardgrass); rate 0.0630 kg/ha): 4.0
- Herbicidal rating CYPSE (CYPSE (Flatsedge) [4]; [15]): 0.0
- Herbicidal rating CYPSE (CYPSE (Flatsedge) [4]; [16]): 0.0
- Herbicidal rating CYPSE (CYPSE (Flatsedge) [4]; [17]): 0.0
- Herbicidal rating CYPSE (CYPSE (Flatsedge) [4]; [18]): 0.0
- MOOVA herbicidal effect rating (MOOVA (Monochoria); 0.0313 kg/ha): 9.0
- MOOVA herbicidal effect rating (MOOVA (Monochoria); 0.0625 kg/ha): 9.0
- MOOVA herbicidal effect rating (MOOVA (Monochoria); 0.1250 kg/ha): 9.0
- MOOVA herbicidal effect rating (MOOVA (Monochoria); 0.2500 kg/ha): 9.0
- Preemergence herbicidal rating ZEAMX (ZEAMX (Corn, Field); rate 0.0156 kg/ha): 0.0
- Preemergence herbicidal rating ZEAMX (ZEAMX (Corn, Field); rate 0.0313 kg/ha): 1.0
- Preemergence herbicidal rating ZEAMX (ZEAMX (Corn, Field); rate 0.0625 kg/ha): 1.0
- Preemergence herbicidal rating ZEAMX (ZEAMX (Corn, Field); rate 0.1250 kg/ha): 1.0
- Preemergence herbicidal rating ZEAMX (ZEAMX (Corn, Field); rate 0.2500 kg/ha): 2.0
- CYPSE herbicidal effect rating (CYPSE (Flatsedge) [5]; 0.0313 kg/ha): 3.5
- CYPSE herbicidal effect rating (CYPSE (Flatsedge) [5]; 0.0625 kg/ha): 4.5
- CYPSE herbicidal effect rating (CYPSE (Flatsedge) [5]; 0.1250 kg/ha): 3.5
- CYPSE herbicidal effect rating (CYPSE (Flatsedge) [5]; 0.2500 kg/ha): 4.5
- Preemergence herbicidal rating GLXMAW ([9]; rate 0.0156 kg/ha): 0.0
- Preemergence herbicidal rating GLXMAW ([9]; rate 0.0313 kg/ha): 1.0
- Preemergence herbicidal rating GLXMAW ([9]; rate 0.0625 kg/ha): 0.0
- Preemergence herbicidal rating GLXMAW ([9]; rate 0.1250 kg/ha): 2.0
- Preemergence herbicidal rating GLXMAW ([9]; rate 0.2500 kg/ha): 3.0
- herbicidal rating ABUTH (ABUTH (Velvetleaf) [6]; rate 0.0158 kg/ha): 9.0
- herbicidal rating ABUTH (ABUTH (Velvetleaf) [6]; rate 0.0315 kg/ha): 9.0
- herbicidal rating ABUTH (ABUTH (Velvetleaf) [6]; rate 0.0630 kg/ha): 9.0
